Like-named read-outs stand apart in the source and are kept apart here.
Tested on: laminitis
Assay type: in vivo, horse

For `CC(=O)Oc1cc2c(s1)CCN(C(C(=O)C1CC1)c1ccccc1F)C2` (stereo not drawn) [Prasugrel], the Therapy progress (Example 1: 8 year old Shetty-gelding, acute attack, initial 20 mg Prasugrel + 1000 mg acetylsalicylic acid per 60 kg, then 10 mg + 500 mg per 60 kg twice a day, change in feeding, day 2) was “distinct pulsation in all 4 legs; the horse is more interested in its surrounding”, the Therapy progress (Example 1: Shetty-gelding, Prasugrel in combination with acetylsalicylic acid, day 3) was “pulsation in the front legs less, in the back legs the same; horse comes when it is called” and the “1. Follow-up examination” value (Example 1: Shetty-gelding, Prasugrel in combination with acetylsalicylic acid, day 4) was “day 4: pulsation in all 4 legs; horse walks with medium grade turning pain”. The “2. Follow-up examination: signs of laminitis” value (Example 1: Shetty-gelding, Prasugrel in combination with acetylsalicylic acid, day 6) was “no signs of laminitis”, the “2. Follow-up examination: hoof ulcers” value (Example 1: Shetty-gelding, Prasugrel in combination with acetylsalicylic acid, day 8) was “no hoof ulcers observable” and the “2. Follow-up examination: recurrence of laminitis” value (Example 1: Shetty-gelding, after stop of treatment on day 10, change of feeding kept) was “no more laminitis occurred”. The Therapy progress (Example 2: 8 year old Shetty-mare, per 60 kg 10 mg Prasugrel + 500 mg acetylsalicylic acid twice a day, change in feeding, from day 3 on) was “light amelioration”, the “Therapy progress: pulsation” value (Example 2: Shetty-mare, Prasugrel in combination with acetylsalicylic acid, from day 7 on) was “no pulsation anymore sensible” and the “Therapy progress: pulsation” value (Example 2: Shetty-mare, Prasugrel in combination with acetylsalicylic acid, until day 5) was “pulsation clearly sensible”. For the same molecule, the Follow-up examination (Example 2: Shetty-mare, 1 month later (treatment stopped on day 14)) was “no pulsation; attitude without pathological findings”, the Therapy progress (Example 3: 12 year old Pony-gelding, 10 mg Prasugrel + 500 mg acetylsalicylic acid per 60 kg twice a day, change in feeding, from day 2 on) was “light amelioration” and the “Therapy progress: movement” value (Example 3: Pony-gelding, Prasugrel in combination with acetylsalicylic acid, day 6) was “pony walks still restrained”. For the same molecule, the “Therapy progress: movement” value (Example 3: Pony-gelding, Prasugrel in combination with acetylsalicylic acid, day 10) was “unlimited movement”, the “Therapy progress: pulsation” value (Example 3: Pony-gelding, Prasugrel in combination with acetylsalicylic acid, from day 4 on) was “no pulsation anymore sensible” and the Therapy progress (Example 4: 8 year old Shetty-gelding, acute attack, 10 mg Prasugrel + 500 mg acetylsalicylic acid per 60 kg twice a day, change in feeding, day 3) was “pony standing in bran, but still heavy pain on all 4 legs”. The Therapy progress (Example 4: Shetty-gelding, Prasugrel in combination with acetylsalicylic acid, day 5) was “clear amelioration of its attitude; less pulsation”, the “Therapy progress: pulsation” value (Example 4: Shetty-gelding, Prasugrel in combination with acetylsalicylic acid, from day 10 on) was “no pulsation sensible anymore” and the “Follow-up examination: outcome of pregnancy” value (in vivo) was “normal birth of a healthy foal”.

Source: patent EP2497475A1, “Treatment of laminitis with platelet aggregation inhibitors” (priority 2011, dated 2012)
